Data taken from patent publication US9012491B2, “Heterocyclic boronic acid ester derivatives and therapeutic uses thereof” (priority 2011, dated 2015).
Where two headings read alike, the source gives them in different places.

Assays:
Assay type in all cases: cell-based
PAM2035 (class C) = conditions: tigemonam at 4 μg/mL, strain PAM2035, class C
Experimental: (§1) Selected β-lactamase inhibitors were tested for their ability to potentiate the monobactam tigemonam. […] Tigemonam is present in the test medium at 4 μg/mL. Compounds tested at the highest concentration of 40 μg/mL. In this assay potency of compounds is determined as a concentration of BLIs to inhibit growth of bacteria in the presence of 4 μg/mL of […] (MPC@4).

KPX1001 (OXA-2, class D) = assay: Tigemonam potentiation (MPC@4) by β-lactamase inhibitors; conditions: tigemonam at 4 μg/mL, strain KPX1001, OXA-2, class D
Experimental: as §1

KP1009 (CTX-M-15) = assay: as above; conditions: tigemonam at 4 μg/mL; strain KP1009, class A ESBL CTX-M-15; class symbols
Experimental: as §1

ec308 (SHV-5) = assay: as above; conditions: tigemonam at 4 μg/mL; strain ec308, class A ESBL SHV-5; class symbols
Experimental: as §1

KP1005 (CTX-M-14) = assay: as above; conditions: tigemonam at 4 μg/mL; strain KP1005, class A ESBL CTX-M-14; class symbols
Experimental: as §1

KP1010 (SHV-12) = assay: as above; conditions: tigemonam at 4 μg/mL; strain KP1010, class A ESBL SHV-12; class symbols
Experimental: as §1

KP1007 (OXA-10, class D) = assay: as above; conditions: tigemonam at 4 μg/mL; strain KP1007, OXA-10, class D; class symbols
Experimental: as §1

ec302 (TEM-10) = assay: as above; conditions: tigemonam at 4 μg/mL; strain ec302, class A ESBL TEM-10; class symbols
Experimental: as §1

EC1009 (TEM-10) = assay: as above; conditions: tigemonam at 4 μg/mL; strain EC1009, class A ESBL TEM-10; class symbols
Experimental: as §1

KP1012 (SHV-18) = assay: as above; conditions: tigemonam at 4 μg/mL; strain KP1012, class A ESBL SHV-18; class symbols
Experimental: as §1

ec304 (TEM-26) = assay: as above; conditions: tigemonam at 4 μg/mL; strain ec304, class A ESBL TEM-26; class symbols
Experimental: as §1

ECL1002 (class C) = assay: as above; conditions: tigemonam at 4 μg/mL; strain ECL1002, class C; class symbols
Experimental: as §1

EC1010 (CMY-6, class C) = assay: as above; conditions: tigemonam at 4 μg/mL; strain EC1010, CMY-6, class C; class symbols
Experimental: as §1

## C[C@]1(Cn2ccnn2)[C@H](C(=O)O)N2C(=O)C[C@H]2S1(=O)=O [Tazobactam]
PAM2035 (class C)
  MPC4 PAM2035: 5 µg/mL
KPX1001 (OXA-2, class D)
  MPC4 OXA-2, KPX1001: 40 µg/mL

## COC(=O)N1CC(CC(=O)O)OB(O)[C@@H](NC(=O)Cc2cccs2)C1 (stereo partly shown) [Compound 45]
KP1009 (CTX-M-15)
  MPC4 CTX-M-15 KP1009: Y (Y = MPC@4 of 2 μg/mL to 10 μg/mL.)
ec308 (SHV-5)
  MPC4 SHV-5 ec308: Y (Y = MPC@4 of 2 μg/mL to 10 μg/mL.)
KP1005 (CTX-M-14)
  MPC4 CTX-M-14 KP1005: Y (Y = MPC@4 of 2 μg/mL to 10 μg/mL.)
KP1010 (SHV-12)
  MPC4 SHV-12 KP1010: X (X = MPC@4 of less than 2 μg/mL.)
KP1007 (OXA-10, class D)
  MPC4 OXA-10, KP1007: X (X = MPC@4 of less than 2 μg/mL.)
ec302 (TEM-10)
  MPC4 TEM-10 ec302: Z (Z = MPC@4 of greater than 10 μg/mL.)

## O=C(O)CC1COC[C@H](NC(=O)Cc2cccs2)B(O)O1 (stereo partly drawn) [Compound 1, 2-((3R)-2-hydroxy-3-(2-(thiophen-2-yl)acetamido)-1,5,2-dioxaborepan-7-yl)acetic acid]
PAM2035 (class C); class symbols
  MPC4 PAM2035: Y (Y = MPC@4 of 2 μg/mL to 10 μg/mL.)
KP1009 (CTX-M-15)
  MPC4 CTX-M-15 KP1009: Y (Y = MPC@4 of 2 μg/mL to 10 μg/mL.)
ec308 (SHV-5)
  MPC4 SHV-5 ec308: Y (Y = MPC@4 of 2 μg/mL to 10 μg/mL.)
KP1005 (CTX-M-14)
  MPC4 CTX-M-14 KP1005: Y (Y = MPC@4 of 2 μg/mL to 10 μg/mL.)
EC1009 (TEM-10)
  MPC4 TEM-10 EC1009: Z (Z = MPC@4 of greater than 10 μg/mL.)
KP1010 (SHV-12)
  MPC4 SHV-12 KP1010: X (X = MPC@4 of less than 2 μg/mL.)
KPX1001 (OXA-2, class D); class symbols
  MPC4 OXA-2, KPX1001: X (X = MPC@4 of less than 2 μg/mL.)
KP1007 (OXA-10, class D)
  MPC4 OXA-10, KP1007: Y (Y = MPC@4 of 2 μg/mL to 10 μg/mL.)
KP1012 (SHV-18)
  MPC4 SHV-18 KP1012: X (X = MPC@4 of less than 2 μg/mL.)
ec304 (TEM-26)
  MPC4 TEM-26 ec304: Z (Z = MPC@4 of greater than 10 μg/mL.)
ec302 (TEM-10)
  MPC4 TEM-10 ec302: Z (Z = MPC@4 of greater than 10 μg/mL.)
ECL1002 (class C)
  MPC4 ECL1002: Y (Y = MPC@4 of 2 μg/mL to 10 μg/mL.)
EC1010 (CMY-6, class C)
  MPC4 CMY-6, EC1010: X (X = MPC@4 of less than 2 μg/mL.)

## O=C(O)[C@H]1/C(=C/CO)O[C@@H]2CC(=O)N21 [Clavulanic Acid]
PAM2035 (class C)
  MPC4 PAM2035: >40 µg/mL
KPX1001 (OXA-2, class D)
  MPC4 OXA-2, KPX1001: 1.25 µg/mL

## CC(=O)N1CC(CC(=O)O)OB(O)[C@@H](NC(=O)Cc2cccs2)C1 (stereo partly drawn) [Compound 10, 2-((3R)-5-acetyl-2-hydroxy-3-(2-(thiophen-2-yl)acetamido)-1,5,2-oxazaborepan-7-yl)acetic acid]
KP1009 (CTX-M-15)
  MPC4 CTX-M-15 KP1009: Y (Y = MPC@4 of 2 μg/mL to 10 μg/mL.)
ec308 (SHV-5)
  MPC4 SHV-5 ec308: Y (Y = MPC@4 of 2 μg/mL to 10 μg/mL.)
KP1005 (CTX-M-14)
  MPC4 CTX-M-14 KP1005: Y (Y = MPC@4 of 2 μg/mL to 10 μg/mL.)
KP1010 (SHV-12)
  MPC4 SHV-12 KP1010: X (X = MPC@4 of less than 2 μg/mL.)
KP1007 (OXA-10, class D)
  MPC4 OXA-10, KP1007: X (X = MPC@4 of less than 2 μg/mL.)
ec302 (TEM-10)
  MPC4 TEM-10 ec302: Z (Z = MPC@4 of greater than 10 μg/mL.)
ECL1002 (class C)
  MPC4 ECL1002: Y (Y = MPC@4 of 2 μg/mL to 10 μg/mL.)
EC1010 (CMY-6, class C)
  MPC4 CMY-6, EC1010: Y (Y = MPC@4 of 2 μg/mL to 10 μg/mL.)
